Measurements as given in patent publication US7803374B2, “Targeted atherosclerosis treatment” (Barnes-Jewish Hospital, priority 2004, dated 2010).
Read-outs that look alike come from different tables or passages of the source.

B1: endostatin: anti-angiogenic agent (protein, UniProt P39060 1572-1754, looked up)
Endostatin: HSHRDFQPVLHLVALNSPLSGGMRGIRGADFQCFQQARAVGLAGTFRAFLSSRLQDLYSIVRRADRAAVPIVNLKDELLFPSWEALFSGSEGPLKPGARIFSFDGKDVLRHPTWPQKSVWHGSDPNGRRLTESYCETWRTEAPSATGQASSLLGGRLLGQSAASCHHAYIVLCIENSFMTASK
modifications: Endostatin
notes: anti-angiogenic agent

Legend:
Apo E−/− mice = conditions: cited from earlier work; for foam cell deposition or fibromuscular lesion development: early atherogenesis; for effectiveness in later treatment: later periods of treatment (32 to 48 weeks)
[1] = high dose; cited from earlier work
[2] = In vitro dissolution: release of fumagillin from nanoparticles by dialysis; assay type: physicochemical; conditions: generally, due to hydrophobic nature
Method: Fumagillin nanoparticle emulsions (250 μl) were dialyzed in 60,000 MW cutoff dialysis tubing against 3.5 ml of releasing medium (0.9% NaCl, 0.2 mg/ml human serum albumin and 0.05% sodium azide) and continuously agitated at 37° C. The releasing medium was replaced daily and analyzed for released fumagillin concentration. Fumagillin was analyzed by reverse-phase HPLC (Waters Corporation). Chromatography was performed using a Waters Novapak C18, 60 Å, 4 μm reversed-phase column (3.9×150 mm) with an isocratic 50% acetonitrile/0.05% of phosphoric acid mobile phase (1 ml/min at ambient temperature).

[3] = treated for 4 months (20 to 36 weeks)

Molecule	intimal vessels and atheroma expansion (Apo E−/− mice; 30 mg per kg every other day for 13 weeks)	foam cell deposition or fibromuscular lesion development (Apo E−/− mice)	effectiveness in later treatment (Apo E−/− mice)	intimal vessels and atheroma expansion (Apo E−/− mice; [3])	side effects [1]	fumagillin released (general statement) [2] [%]
CO[C@@H]1[C@H](OC(=O)NC(=O)CCl)CC[C@]2(CO2)[C@H]1[C@@]1(C)O[C@@H]1CC=C(C)C [TNP-470]	reduction in intimal vessels and diminished atheroma expansion	Neither endostatin nor TNP-470 altered	less effective	reduced number of intimal vessels and diminished atheroma expansion	serious side effects such as neurocognitive toxicity	–
CO[C@@H]1[C@H](OC(=O)/C=C/C=C/C=C/C=C/C(=O)O)CC[C@]2(CO2)[C@H]1[C@@]1(C)O[C@@H]1CC=C(C)C [fumagillin]	–	–	–	–	–	< 10
B1	–	Neither endostatin nor TNP-470 altered	less effective	reduced number of intimal vessels and diminished atheroma expansion	–	–
